Consider 18 compounds from PMC12523282, “New 5,6-diphenyl-1,2,4-triazine-hydrazineylidene-phenoxy-1,2,3-triazole-acetamide derivatives as potent synthetic α-glucosidase inhibitors” (RSC Advances, 2025).

Where only a bound is given, the exact number is not on record here.

What is called IC50 is the concentration needed to halve the response being measured. The term inhibition denotes the relative decrease from the control value, in per cent.

Assay [1] deals with T1, α-glucosidase (Saccharomyces cerevisiae, UniProt P53341).
T1 construct: the yeast form of α-glucosidase, which was extracted from Saccharomyces cerevisiae; purchased Sigma-Aldrich; host or cells: Saccharomyces cerevisiae (extracted)
Nature of the assay: Anti-α-glucosidase assay (p-nitrophenyl-α-D-glucopyranoside substrate, absorbance 405 nm). The format is biochemical. The settings on record: for Inhibation: IC50 determination curve; for decrease of inhibitory activity relative to un-substituted derivative 13a: methyl group added to phenyl ring of 13a; for inhibition at 750 µM: read-out: In (%), inhibition percentage against α-glucosidase; for inhibitory activity, times more potent than acarbose: ratio of IC50 values vs acarbose. On the procedure:
After this time, the p-nitrophenyl-α-D-glucopyranoside (25 μL, 4 mM) was added to the latter plate and allowed to incubate at 37 °C for 20 min. […] The percentage of inhibition (% inhibition) for each sample was calculated using the formula “[(Abs control − Abs sample)/Abs control] × 100”, and IC50 values were obtained from non-linear regression curve using the Logit method.[24]

The target of assay [2] is α-glucosidase. Further details: method as in PMID 31838286. The settings on record: assay of template compounds B, Fig. 1 and Fig. 5; cited from earlier work.
Setting [3] is: IC50 (from IC50 determination curves, supplement), logarithmic fit of inhibition vs Conc., unit inferred.
Where [4] appears, read: IC50, yeast α-glucosidase, mean ± SD, at least three experiments.

T1 sequence (P53341 whole entry): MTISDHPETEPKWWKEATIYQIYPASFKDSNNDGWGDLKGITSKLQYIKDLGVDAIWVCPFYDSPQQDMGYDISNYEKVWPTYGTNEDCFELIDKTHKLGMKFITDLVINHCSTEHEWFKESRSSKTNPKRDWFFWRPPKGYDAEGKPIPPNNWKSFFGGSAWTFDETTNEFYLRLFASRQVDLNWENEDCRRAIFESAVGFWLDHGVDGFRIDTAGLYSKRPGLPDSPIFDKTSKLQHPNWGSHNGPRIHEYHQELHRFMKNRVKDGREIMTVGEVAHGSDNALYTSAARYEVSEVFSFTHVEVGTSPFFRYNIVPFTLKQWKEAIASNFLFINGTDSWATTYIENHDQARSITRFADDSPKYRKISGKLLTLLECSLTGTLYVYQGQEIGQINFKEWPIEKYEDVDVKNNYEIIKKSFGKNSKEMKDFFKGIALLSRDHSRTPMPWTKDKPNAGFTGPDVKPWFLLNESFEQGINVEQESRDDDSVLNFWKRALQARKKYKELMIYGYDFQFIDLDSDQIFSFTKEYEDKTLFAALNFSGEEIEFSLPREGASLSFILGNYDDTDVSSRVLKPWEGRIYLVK

With `Cc1cccc(NC(=O)Cn2cc(COc3ccc(/C=N/Nc4nnc(-c5ccccc5)c(-c5ccccc5)n4)cc3)nn2)c1` [Compound 13c, (E)-2-(4-((4-((2-(5,6-Diphenyl-1,2,4-triazin-3-yl)hydrazineylidene)methyl)phenoxy)methyl)-1H-1,2,3-triazol-1-yl)-N-(m-tolyl)acetamide], the Inhibation stood at 74.8 at α-glucosidase [1] (Conc. 15 (unit not given)); 80.67 at α-glucosidase [1] (Conc. 30 (unit not given)); 93 on α-glucosidase [1] (Conc. 60 (unit not given)); 96 at α-glucosidase [1] (Conc. 90 (unit not given)); 97 on α-glucosidase [1] (Conc. 120 (unit not given)). Further, the IC50 at α-glucosidase [1] (setting [3]) was under 15 µM. At α-glucosidase [1], the “decrease of inhibitory activity relative to un-substituted derivative 13a” value is 2.25 fold. In addition, the inhibition at 750 µM on α-glucosidase [1] is 100%.

Consider `O=C(Cn1cc(COc2ccc(-c3nc4ccccc4[nH]3)cc2)nn1)Nc1ccccc1[N+](=O)[O-]` [B (R = 2-Nitro, n = 0)], for which the IC50 at α-glucosidase [2] is 35 µM.

For `O=C(Cn1cc(COc2ccc(/C=N/Nc3nnc(-c4ccccc4)c(-c4ccccc4)n3)cc2)nn1)NCCc1ccccc1` [Compound 13n, (E)-2-(4-((4-((2-(5,6-Diphenyl-1,2,4-triazin-3-yl)hydrazineylidene)methyl)phenoxy)methyl)-1H-1,2,3-triazol-1-yl)-N-phenethylacetamide], the Inhibation on α-glucosidase [1] (Conc. 15 (unit not given)) was determined as 79.27; on α-glucosidase [1] (Conc. 30 (unit not given)), 84.67; on α-glucosidase [1] (Conc. 60 (unit not given)), 90; at α-glucosidase [1] (Conc. 90 (unit not given)), 93; at α-glucosidase [1] (Conc. 120 (unit not given)), 98. The IC50 at α-glucosidase [1] (setting [3]) was under 15 µM. Besides, the inhibition at 750 µM on α-glucosidase [1] is 100%.

Consider `O=C(Cn1cc(COc2ccc(/C=N/Nc3nnc(-c4ccccc4)c(-c4ccccc4)n3)cc2)nn1)Nc1ccccc1F` [Compound 13g, (E)-2-(4-((4-((2-(5,6-Diphenyl-1,2,4-triazin-3-yl)hydrazineylidene)methyl)phenoxy)methyl)-1H-1,2,3-triazol-1-yl)-N-(2-fluorophenyl)acetamide], for which the Inhibation at α-glucosidase [1] (Conc. 15 (unit not given)) is 69.05; on α-glucosidase [1] (Conc. 30 (unit not given)) it was 72.24; at α-glucosidase [1] (Conc. 60 (unit not given)), 76; at α-glucosidase [1] (Conc. 90 (unit not given)) it was 78. At α-glucosidase [1] (setting [3]), this compound returned an IC50 of under 15 µM. Further, at α-glucosidase [1], the inhibition at 750 µM came out at 79%.

For `O=C(Cn1cc(COc2ccc(/C=N/Nc3nnc(-c4ccccc4)c(-c4ccccc4)n3)cc2)nn1)Nc1ccc(Br)cc1` [Compound 13k, (E)-N-(4-Bromophenyl)-2-(4-((4-((2-(5,6-diphenyl-1,2,4-triazin-3-yl)hydrazineylidene)methyl)phenoxy)methyl)-1H-1,2,3-triazol-1-yl)acetamide], the Inhibation on α-glucosidase [1] (Conc. 15 (unit not given)) worked out at 49.91; on α-glucosidase [1] (Conc. 30 (unit not given)), 56.12; on α-glucosidase [1] (Conc. 60 (unit not given)) it was 60; on α-glucosidase [1] (Conc. 90 (unit not given)), 65; at α-glucosidase [1] (Conc. 120 (unit not given)) it was 67. The IC50 was 15.3 µM against α-glucosidase [1] (setting [3]) and 15.3 ± 0.29 µM on α-glucosidase [1] (setting [4]). Further, the inhibition at 750 µM at α-glucosidase [1] stood at 69%.

For `COc1ccc(NC(=O)Cn2cc(COc3ccc(-c4nc5ccccc5[nH]4)cc3)nn2)cc1` [B (R = 4-OMe, n = 0)], at α-glucosidase [2], the IC50 was 112 µM.

In the case of `Cc1ccc(NC(=O)Cn2cc(COc3ccc(/C=N/Nc4nnc(-c5ccccc5)c(-c5ccccc5)n4)cc3)nn2)c(C)c1` [Compound 13d, (E)-N-(2,4-Dimethylphenyl)-2-(4-((4-((2-(5,6-diphenyl-1,2,4-triazin-3-yl)hydrazineylidene)methyl)phenoxy)methyl)-1H-1,2,3-triazol-1-yl)acetamide], the Inhibation on α-glucosidase [1] (Conc. 15 (unit not given)) is on record as 61.12; on α-glucosidase [1] (Conc. 30 (unit not given)), 65.17; on α-glucosidase [1] (Conc. 60 (unit not given)), 68; on α-glucosidase [1] (Conc. 90 (unit not given)), 72; at α-glucosidase [1] (Conc. 120 (unit not given)), 74. For the same compound, the IC50 against α-glucosidase [1] (setting [3]) is under 15 µM. Besides, the inhibition at 750 µM at α-glucosidase [1] amounted to 75%.

Take `CCc1ccc(NC(=O)Cn2cc(COc3ccc(/C=N/Nc4nnc(-c5ccccc5)c(-c5ccccc5)n4)cc3)nn2)cc1` [Compound 13e, (E)-2-(4-((4-((2-(5,6-Diphenyl-1,2,4-triazin-3-yl)hydrazineylidene)methyl)phenoxy)methyl)-1H-1,2,3-triazol-1-yl)-N-(4-ethylphenyl)acetamide]: the Inhibation is reported as 69.6 on α-glucosidase [1] (Conc. 15 (unit not given)), 82.93 at α-glucosidase [1] (Conc. 30 (unit not given)) and 95 at α-glucosidase [1] (Conc. 60 (unit not given)). At α-glucosidase [1] (setting [3]), this compound had an IC50 of under 15 µM. The “potency relative to 4-methoxy derivative 13f” value on α-glucosidase [1] (more potent than 13f) is listed as “around 3 fold”. Further, the inhibition at 750 µM at α-glucosidase [1] came to 100%.

With `O=C(Cn1cc(COc2ccc(-c3nc4ccccc4[nH]3)cc2)nn1)Nc1ccccc1` [B (R = H, n = 0)], at α-glucosidase [2], the IC50 was 51.5 µM.

On to `O=C(Cn1cc(COc2ccc(/C=N/Nc3nnc(-c4ccccc4)c(-c4ccccc4)n3)cc2)nn1)Nc1ccccc1[N+](=O)[O-]` [Compound 13l, (E)-2-(4-((4-((2-(5,6-Diphenyl-1,2,4-triazin-3-yl)hydrazineylidene)methyl)phenoxy)methyl)-1H-1,2,3-triazol-1-yl)-N-(2-nitrophenyl)acetamide], for which the Inhibation at α-glucosidase [1] (Conc. 15 (unit not given)) is given as 37.76; on α-glucosidase [1] (Conc. 30 (unit not given)) it was 48.45; at α-glucosidase [1] (Conc. 60 (unit not given)), 59; at α-glucosidase [1] (Conc. 90 (unit not given)), 65; on α-glucosidase [1] (Conc. 120 (unit not given)), 67. Besides, the IC50 against α-glucosidase [1] (setting [3]) was found to be 34.2 µM; on α-glucosidase [1] (setting [4]), 34.2 ± 0.57 µM. Also, the “inhibitory activity, times more potent than acarbose” value on α-glucosidase [1] turned out to be 21.9 fold. On α-glucosidase [1], the inhibition at 750 µM was found to be 69%.

For the compound `Cc1ccccc1NC(=O)Cn1cc(COc2ccc(/C=N/Nc3nnc(-c4ccccc4)c(-c4ccccc4)n3)cc2)nn1` [Compound 13b, (E)-2-(4-((4-((2-(5,6-Diphenyl-1,2,4-triazin-3-yl)hydrazineylidene)methyl)phenoxy)methyl)-1H-1,2,3-triazol-1-yl)-N-(o-tolyl)acetamide], the Inhibation at α-glucosidase [1] (Conc. 15 (unit not given)) is on record as 54.87; at α-glucosidase [1] (Conc. 30 (unit not given)), 67; at α-glucosidase [1] (Conc. 60 (unit not given)), 83; at α-glucosidase [1] (Conc. 90 (unit not given)) it was 93. For the same compound, the figures for the IC50 against α-glucosidase [1] (setting [3]) and against α-glucosidase [1] (setting [4]) were 12.5 µM and 12.5 ± 0.21 µM, respectively. The “decrease of inhibitory activity relative to un-substituted derivative 13a” value at α-glucosidase [1] was 15.6 fold. Moreover, on α-glucosidase [1], the inhibition at 750 µM came to 98%.

`O=C(Cn1cc(COc2ccc(/C=N/Nc3nnc(-c4ccccc4)c(-c4ccccc4)n3)cc2)nn1)Nc1ccccc1Cl` [Compound 13h, (E)-N-(2-Chlorophenyl)-2-(4-((4-((2-(5,6-diphenyl-1,2,4-triazin-3-yl)hydrazineylidene)methyl)phenoxy)methyl)-1H-1,2,3-triazol-1-yl)acetamide]: the Inhibation is 75.34 on α-glucosidase [1] (Conc. 15 (unit not given)), 79.31 at α-glucosidase [1] (Conc. 30 (unit not given)), 83 on α-glucosidase [1] (Conc. 60 (unit not given)) and 86 on α-glucosidase [1] (Conc. 90 (unit not given)). The same compound returned a 50% inhibitory concentration (IC50) at α-glucosidase [1] (setting [3]) of under 15 µM. For the same compound, at α-glucosidase [1], the “inhibitory activity, times more potent than acarbose” value is given as about 3947 fold. Also, at α-glucosidase [1], the inhibition at 750 µM worked out at 87%.

For `O=C(Cn1cc(COc2ccc(-c3nc4ccccc4[nH]3)cc2)nn1)Nc1ccc(Br)cc1` [B (R = 4-Br, n = 0)], the IC50 on α-glucosidase [2] is 176 µM.

With `O=C(Cn1cc(COc2ccc(/C=N/Nc3nnc(-c4ccccc4)c(-c4ccccc4)n3)cc2)nn1)NCc1ccccc1` [Compound 13m, (E)-N-Benzyl-2-(4-((4-((2-(5,6-diphenyl-1,2,4-triazin-3-yl)hydrazineylidene)methyl)phenoxy)methyl)-1H-1,2,3-triazol-1-yl)acetamide], the Inhibation is given as 70 on α-glucosidase [1] (Conc. 15 (unit not given)); 80 on α-glucosidase [1] (Conc. 30 (unit not given)); 87 on α-glucosidase [1] (Conc. 60 (unit not given)); 88.3 on α-glucosidase [1] (Conc. 90 (unit not given)); 89 on α-glucosidase [1] (Conc. 120 (unit not given)). Moreover, on α-glucosidase [1], the inhibition at 750 µM is 90%.

Take `O=C(Cn1cc(COc2ccc(/C=N/Nc3nnc(-c4ccccc4)c(-c4ccccc4)n3)cc2)nn1)Nc1ccccc1` [Compound 13a, (E)-2-(4-((4-((2-(5,6-Diphenyl-1,2,4-triazin-3-yl)hydrazineylidene)methyl)phenoxy)methyl)-1H-1,2,3-triazol-1-yl)-N-phenylacetamide]: the Inhibation on α-glucosidase [1] (Conc. 15 (unit not given)) is listed as 76.53; at α-glucosidase [1] (Conc. 30 (unit not given)) it was 81.33; on α-glucosidase [1] (Conc. 60 (unit not given)), 89; on α-glucosidase [1] (Conc. 90 (unit not given)), 93; at α-glucosidase [1] (Conc. 120 (unit not given)) it was 94. Besides, the IC50 against α-glucosidase [1] (setting [3]) is under 15 µM. The inhibition at 750 µM at α-glucosidase [1] stood at 95%.

As for `COc1ccc(NC(=O)Cn2cc(COc3ccc(/C=N/Nc4nnc(-c5ccccc5)c(-c5ccccc5)n4)cc3)nn2)cc1` [Compound 13f, (E)-2-(4-((4-((2-(5,6-Diphenyl-1,2,4-triazin-3-yl)hydrazineylidene)methyl)phenoxy)methyl)-1H-1,2,3-triazol-1-yl)-N-(4-methoxyphenyl)acetamide], the Inhibation at α-glucosidase [1] (Conc. 15 (unit not given)) worked out at 56; at α-glucosidase [1] (Conc. 30 (unit not given)) it was 72.67; at α-glucosidase [1] (Conc. 60 (unit not given)), 89; at α-glucosidase [1] (Conc. 90 (unit not given)), 98. The IC50 amounted to 10.9 µM on α-glucosidase [1] (setting [3]) and 10.9 ± 0.24 µM at α-glucosidase [1] (setting [4]). For the same compound, on α-glucosidase [1], the inhibition at 750 µM stood at 100%.

With `O=C(Cn1cc(COc2ccc(/C=N/Nc3nnc(-c4ccccc4)c(-c4ccccc4)n3)cc2)nn1)Nc1cccc(Cl)c1` [Compound 13i, (E)-N-(3-Chlorophenyl)-2-(4-((4-((2-(5,6-diphenyl-1,2,4-triazin-3-yl)hydrazineylidene)methyl)phenoxy)methyl)-1H-1,2,3-triazol-1-yl)acetamide], the Inhibation at α-glucosidase [1] (Conc. 15 (unit not given)) is reported as 53.4; on α-glucosidase [1] (Conc. 30 (unit not given)), 74.73; at α-glucosidase [1] (Conc. 60 (unit not given)), 84; at α-glucosidase [1] (Conc. 90 (unit not given)) it was 98. The figures for the IC50 on α-glucosidase [1] (setting [3]) and against α-glucosidase [1] (setting [4]) were 11.7 µM and 11.7 ± 0.18 µM, respectively. The inhibition at 750 µM on α-glucosidase [1] came out at 100%.

Turning to `O=C(Cn1cc(COc2ccc(-c3nc4ccccc4[nH]3)cc2)nn1)Nc1ccc(Cl)cc1` [B (R = 4-Cl, n = 0)], on α-glucosidase [2], the IC50 was 91.6 µM.
